We go through 18 compounds from patent publication US20260217706A1, “HETEROCYCLIC COMPOUNDS, PREPARATION METHOD THEREFOR AND USE THEREOF” (GUANGZHOU YUFAN NANTU BIOTECHNOLOGIES CO., LTD, priority 2023, published 2026).

For one test, the target named is CBL-B protein (Homo sapiens, UniProt Q13191). Kind of test: CBL-B binding experiment (Streptavidin-Tb cryptate / Ligand L1 displacement). The conditions noted are these: 8 nM CBL-B protein, 25° C., 60 minutes; Ki=Relative IC50/2. The method, boiled down:
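Compounds in a 10-point DMSO series met 8 nM CBL-B protein in HEPES pH 7.5/NaCl/Triton/TCEP/BSA buffer at 25° C. for 60 min. A further 60 min at room temperature preceded the luminescence read, normalised to no-protein and DMSO wells. Ki was taken as relative IC50 divided by 2.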

The subject of test [1] is anti-CD3 activated human PBMCs. Description: Effect of compounds on the level of IL-2 secretion by anti-CD3 activated human PBMCs (IL-2 ELISA). It is filed as cell-based. Particulars: compound concentration at which fold change in IL-2 = 5; hPBMCs, CD3 antibody 2 μg/mL, 48 h, compound from 3 μM. The method, boiled down: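 Human PBMCs were preincubated 1 h, then exposed to compound (10 points, 3-fold from 3 μM final) with anti-CD3 at 2 μg/mL for 48 h at 37° C. Supernatant IL-2 was measured by ELISA as fold change over DMSO.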
A general note: ELISA stands for enzyme-linked immunosorbent assay.

Molecules are shown by their SMILES. A value given as a limit tells only on which side of the number the result lay.

Chain of CBL-B protein (Q13191 whole entry): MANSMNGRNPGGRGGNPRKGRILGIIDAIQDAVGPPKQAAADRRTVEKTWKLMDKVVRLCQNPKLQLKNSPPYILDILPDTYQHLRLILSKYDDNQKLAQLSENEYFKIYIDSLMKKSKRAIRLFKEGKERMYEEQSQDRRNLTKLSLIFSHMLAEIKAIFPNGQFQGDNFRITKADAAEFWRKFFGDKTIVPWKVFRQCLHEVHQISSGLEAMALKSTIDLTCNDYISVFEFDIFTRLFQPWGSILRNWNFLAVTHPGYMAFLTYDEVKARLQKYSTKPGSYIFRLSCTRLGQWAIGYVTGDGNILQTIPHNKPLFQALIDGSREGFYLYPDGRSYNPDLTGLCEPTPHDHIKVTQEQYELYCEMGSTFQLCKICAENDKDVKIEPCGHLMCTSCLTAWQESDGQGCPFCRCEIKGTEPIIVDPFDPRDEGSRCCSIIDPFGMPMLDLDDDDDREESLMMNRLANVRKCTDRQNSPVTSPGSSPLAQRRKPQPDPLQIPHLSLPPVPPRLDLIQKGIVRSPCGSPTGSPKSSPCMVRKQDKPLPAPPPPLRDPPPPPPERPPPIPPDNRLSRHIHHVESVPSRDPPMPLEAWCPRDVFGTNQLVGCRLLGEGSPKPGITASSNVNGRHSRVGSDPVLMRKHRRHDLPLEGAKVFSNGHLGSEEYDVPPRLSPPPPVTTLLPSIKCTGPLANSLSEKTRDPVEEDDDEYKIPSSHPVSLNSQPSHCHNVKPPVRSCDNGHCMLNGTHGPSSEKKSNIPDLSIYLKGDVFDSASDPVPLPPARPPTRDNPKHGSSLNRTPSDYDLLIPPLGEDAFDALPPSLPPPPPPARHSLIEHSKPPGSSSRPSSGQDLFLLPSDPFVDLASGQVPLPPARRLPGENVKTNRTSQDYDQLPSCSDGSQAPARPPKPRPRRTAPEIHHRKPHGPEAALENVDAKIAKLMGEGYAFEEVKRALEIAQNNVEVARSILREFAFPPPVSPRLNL

The term Ki denotes a measure of affinity in units of concentration, obtained from inhibition or displacement. At CBL-B protein, `C[C@H]1CCCN(Cc2cc3c(C(F)(F)F)cn(-c4cc(C#N)cc([C@]5(c6nncn6C)C[C@H](C)C5)c4)c(=O)c3[nH]2)C1` [Compound T122, 3-((1r,3S)-3-methyl-1-(4-methyl-4H-1,2,4-triazol-3-yl)cyclobutyl)-5-(2-(((S)-3-methylpiperidin-1-yl)methyl)-7-oxo-4-(trifluoromethyl)-1,7-dihydro-6H-pyrrolo[2,3-c]pyridin-6-yl)benzonitrile] registered a Ki of less than 50 nM. In addition, the “IL-2 CFC=5/nM” value in test [1] is less than 500 nM.

In turn, `C[C@H]1CCCN(Cc2cc3c(C(F)(F)F)cn(-c4cccc(C5(Cc6nncn6C)CC(F)(F)C5)c4)c(=O)c3[nH]2)C1` [Compound T126, 6-[3-[3,3-difluoro-1-[(4-methyl-1,2,4-triazol-3-yl)methyl]cyclobutyl]phenyl]-2-[[(3S)-3-methyl-1-piperidyl]methyl]-4-(trifluoromethyl)-1H-pyrrolo[2,3-c]pyridin-7-one] registered a Ki on CBL-B protein of less than 50 nM. The “IL-2 CFC=5/nM” value in test [1] is given as less than 500 nM.

At CBL-B protein, `C[C@H]1CCCN(Cc2cc3c(C(F)(F)F)cn(-c4cccc([C@]5(c6nncn6C)C[C@@H](OC(F)(F)F)C5)c4)c(=O)c3[nH]2)C1` [Compound T130, 6-(3-((1s,3R)-1-(4-methyl-4H-1,2,4-triazol-3-yl)-3-(trifluoromethoxy)cyclobutyl)phenyl)-2-(((S)-3-methylpiperidin-1-yl)methyl)-4-(trifluoromethyl)-1,6-dihydro-7H-pyrrolo[2,3-c]pyridin-7-one] showed a Ki of less than 50 nM. For the same compound, in test [1], the “IL-2 CFC=5/nM” value is less than 500 nM.

On CBL-B protein, `C[C@H]1CCCN(Cc2cc3c(C(F)(F)F)cn(-c4cccc([C@]5(c6nncn6C)C[C@H](OC(F)(F)F)C5)c4)c(=O)c3[nH]2)C1` [Compound T131, 6-(3-((1r,3S)-1-(4-methyl-4H-1,2,4-triazol-3-yl)-3-(trifluoromethoxy)cyclobutyl)phenyl)-2-(((S)-3-methylpiperidin-1-yl)methyl)-4-(trifluoromethyl)-1,6-dihydro-7H-pyrrolo[2,3-c]pyridin-7-one] gave an inhibition constant (Ki) of less than 50 nM. In addition, the “IL-2 CFC=5/nM” value in test [1] is less than 500 nM.

On CBL-B protein, `CO[C@H]1C[C@@](c2cccc(-n3cc(C(F)(F)F)c4cc(CN5CCC[C@H](C)C5)[nH]c4c3=O)c2)(c2nncn2C)C1` [Compound T134, 6-(3-((1s,3R)-3-methoxy-1-(4-methyl-4H-1,2,4-triazol-3-yl)cyclobutyl)phenyl)-2-(((S)-3-methylpiperidin-1-yl)methyl)-4-(trifluoromethyl)-1,6-dihydro-7H-pyrrolo[2,3-c]pyridin-7-one] came in with a Ki of less than 50 nM. The “IL-2 CFC=5/nM” value in test [1] was less than 500 nM.

At CBL-B protein, `CO[C@H]1C[C@](c2cccc(-n3cc(C(F)(F)F)c4cc(CN5CCC[C@H](C)C5)[nH]c4c3=O)c2)(c2nncn2C)C1` [Compound T135, 6-(3-((1r,3S)-3-methoxy-1-(4-methyl-4H-1,2,4-triazol-3-yl)cyclobutyl)phenyl)-2-(((S)-3-methylpiperidin-1-yl)methyl)-4-(trifluoromethyl)-1,6-dihydro-7H-pyrrolo[2,3-c]pyridin-7-one] displayed a Ki of less than 50 nM. The “IL-2 CFC=5/nM” value in test [1] is less than 500 nM.

`CO[C@H]1C[C@@](c2cccc(-n3cc(C(F)(F)F)c4cc(CN5CC6CCC(C6)C5)[nH]c4c3=O)c2)(c2nncn2C)C1` [Compound T145, 2-((3-azabicyclo[3.2.1]octan-3-yl)methyl)-6-(3-((1s,3s)-3-methoxy-1-(4-methyl-4H-1,2,4-triazol-3-yl)cyclobutyl)phenyl)-4-(trifluoromethyl)-1,6-dihydro-7H-pyrrolo[2,3-c]pyridin-7-one] displayed a Ki at CBL-B protein of less than 50 nM. Also, the “IL-2 CFC=5/nM” value in test [1] was less than 500 nM.

Compound `CO[C@H]1C[C@@](c2cccc(-n3cc(C(F)(F)F)c4cc(CN5CCCC6(CC6)C5)[nH]c4c3=O)c2)(c2nncn2C)C1` [Compound T147, 2-((5-azaspiro[2.5]octan-5-yl)methyl)-6-(3-((1s,3s)-3-methoxy-1-(4-methyl-4H-1,2,4-triazol-3-yl)cyclobutyl)phenyl)-4-(trifluoromethyl)-1,6-dihydro-7H-pyrrolo[2,3-c]pyridin-7-one] showed an inhibition constant (Ki) on CBL-B protein of less than 50 nM. Besides, in test [1], the “IL-2 CFC=5/nM” value is less than 500 nM.

The compound `CCN(Cc1cc2c(C(F)(F)F)cn(-c3cccc([C@]4(c5nncn5C)C[C@@H](OC)C4)c3)c(=O)c2[nH]1)CC(C)C` [Compound T149, 2-((ethyl(isobutyl)amino)methyl)-6-(3-((1s,3s)-3-methoxy-1-(4-methyl-4H-1,2,4-triazol-3-yl)cyclobutyl)phenyl)-4-(trifluoromethyl)-1,6-dihydro-7H-pyrrolo[2,3-c]pyridin-7-one] came in with an inhibition constant Ki at CBL-B protein of less than 50 nM. Further, the “IL-2 CFC=5/nM” value in test [1] is on record as less than 500 nM.

In turn, `CO[C@H]1C[C@](c2cccc(-n3cc(C(F)(F)F)c4cc(CNCCC5CC5)[nH]c4c3=O)c2)(c2nncn2C)C1` [Compound T154, 2-(((2-cyclopropylethyl)amino)methyl)-6-(3-((1r,3r)-3-methoxy-1-(4-methyl-4H-1,2,4-triazol-3-yl)cyclobutyl)phenyl)-4-(trifluoromethyl)-1,6-dihydro-7H-pyrrolo[2,3-c]pyridin-7-one] returned an inhibition constant (Ki) on CBL-B protein of less than 50 nM. The “IL-2 CFC=5/nM” value in test [1] is given as less than 500 nM.

`CO[C@H]1C[C@](c2cccc(-n3cc(C(F)(F)F)c4cc(CN5CCCC(C(F)F)C5)[nH]c4c3=O)c2)(c2nncn2C)C1` (stereo partly drawn) [Compound T156, 2-((3-(difluoromethyl)piperidin-1-yl)methyl)-6-(3-((1r,3r)-3-methoxy-1-(4-methyl-4H-1,2,4-triazol-3-yl)cyclobutyl)phenyl)-4-(trifluoromethyl)-1,6-dihydro-7H-pyrrolo[2,3-c]pyridin-7-one] returned a Ki on CBL-B protein of less than 50 nM. Further, the “IL-2 CFC=5/nM” value in test [1] is on record as less than 500 nM.

`Cn1cnnc1[C@]1(c2cccc(-n3cc(C(F)(F)F)c4cc(CN5CCCC(C(F)F)C5)[nH]c4c3=O)c2)C[C@H](C)C1` (stereo partly drawn) [Compound T157, 2-((3-(difluoromethyl)piperidin-1-yl)methyl)-6-(3-((1s,3s)-3-methyl-1-(4-methyl-4H-1,2,4-triazol-3-yl)cyclobutyl)phenyl)-4-(trifluoromethyl)-1,6-dihydro-7H-pyrrolo[2,3-c]pyridin-7-one]: on CBL-B protein, the inhibition constant Ki is less than 50 nM. The “IL-2 CFC=5/nM” value in test [1] is reported as less than 500 nM.

Take `C[C@H](NCc1cc2c(C(F)(F)F)cn(-c3cccc([C@]4(c5nncn5C)C[C@@H](C)C4)c3)c(=O)c2[nH]1)C(C)(C)C` [Compound T158, 2-((((S)-3,3-dimethylbutan-2-yl)amino)methyl)-6-(3-((1s,3R)-3-methyl-1-(4-methyl-4H-1,2,4-triazol-3-yl)cyclobutyl)phenyl)-4-(trifluoromethyl)-1,6-dihydro-7H-pyrrolo[2,3-c]pyridin-7-one]: on CBL-B protein, the Ki was less than 50 nM. In addition, the “IL-2 CFC=5/nM” value in test [1] is reported as less than 500 nM.

Consider `CCN(Cc1cc2c(C(F)(F)F)cn(-c3cccc([C@]4(c5nncn5C)C[C@@H](C)C4)c3)c(=O)c2[nH]1)C(C)C` [Compound T159, 2-((ethyl(isopropyl)amino)methyl)-6-(3-((1s,3s)-3-methyl-1-(4-methyl-4H-1,2,4-triazol-3-yl)cyclobutyl)phenyl)-4-(trifluoromethyl)-1,6-dihydro-7H-pyrrolo[2,3-c]pyridin-7-one], for which, at CBL-B protein, the Ki is less than 50 nM. The “IL-2 CFC=5/nM” value in test [1] is given as less than 500 nM.

`CCCNCc1cc2c(C(F)(F)F)cn(-c3cccc(C4(c5nncn5C)CCC4)c3)c(=O)c2[nH]1` [Compound T160, 6-(3-(1-(4-methyl-4H-1,2,4-triazol-3-yl)cyclobutyl)phenyl)-2-((propylamino)methyl)-4-(trifluoromethyl)-1,6-dihydro-7H-pyrrolo[2,3-c]pyridin-7-one]: the inhibition constant (Ki) on CBL-B protein was less than 50 nM. Besides, in test [1], the “IL-2 CFC=5/nM” value is less than 500 nM.

`Cn1cnnc1C1(c2cccc(-n3cc(C(F)(F)F)c4cc(CNC(C)(C)C)[nH]c4c3=O)c2)CCC1` [Compound T161, 2-((tert-butylamino)methyl)-6-(3-(1-(4-methyl-4H-1,2,4-triazol-3-yl)cyclobutyl)phenyl)-4-(trifluoromethyl)-1,6-dihydro-7H-pyrrolo[2,3-c]pyridin-7-one] showed a Ki on CBL-B protein of less than 50 nM. The “IL-2 CFC=5/nM” value in test [1] is on record as less than 500 nM.

`Cn1cnnc1C1(c2cccc(-n3cc(C(F)(F)F)c4cc(CNCC(C)(C)C)[nH]c4c3=O)c2)CCC1` [Compound T162, 6-(3-(1-(4-methyl-4H-1,2,4-triazol-3-yl)cyclobutyl)phenyl)-2-((neopentylamino)methyl)-4-(trifluoromethyl)-1,6-di hydro-7H-pyrrolo[2,3-c]pyridin-7-one] displayed an inhibitory constant (Ki) on CBL-B protein of less than 50 nM. Moreover, the “IL-2 CFC=5/nM” value in test [1] is recorded as less than 500 nM.

In turn, `CCN(Cc1cc2c(C(F)(F)F)cn(-c3cccc([C@]4(c5nncn5C)C[C@@H](OC)C4)c3)c(=O)c2[nH]1)C(C)C` [Compound T192] returned a Ki on CBL-B protein of less than 50 nM. Besides, the “IL-2 CFC=5/nM” value in test [1] is less than 500 nM.
